Laboratory results published in ChEMBL document CHEMBL3352800, “Structure-guided discovery of 1,3,5-triazine-pyrazole conjugates as antibacterial and antibiofilm agent against pathogens causing human diseases with favorable metabolic fate” (2014).
Converted amounts (≈) assume the structure as drawn.

What was measured:
Type in all cases: functional
Staphylococcus aureus [1] = assay: Antibiofilm activity against Staphylococcus aureus NCIM-2079 after 16 hrs
Escherichia coli = assay: Antibacterial activity against Escherichia coli NCIM-2065 after 24 hrs by broth dilution method; settings: NCIM-2065, 24 h
Proteus vulgaris = assay: Antibacterial activity against Proteus vulgaris NCIM-2027 after 24 hrs by broth dilution method; settings: NCIM-2027, 24 h
Bacillus cereus = assay: Antibacterial activity against Bacillus cereus NCIM-2156 after 24 hrs by broth dilution method; settings: NCIM-2156, 24 h
Bacillus subtilis = assay: Antibacterial activity against Bacillus subtilis NCIM-2063 after 24 hrs by broth dilution method; settings: NCIM-2063, 24 h
Pseudomonas aeruginosa = assay: Antibacterial activity against Pseudomonas aeruginosa NCIM-2036 after 24 hrs by broth dilution method; settings: NCIM-2036, 24 h
Staphylococcus aureus [2] = assay: Antibacterial activity against Staphylococcus aureus NCIM-2079 after 24 hrs by broth dilution method; settings: NCIM-2079, 24 h

SMILES	MIC (Escherichia coli)	MIC (Proteus vulgaris)	MIC (Bacillus cereus)	MIC (Bacillus subtilis)	MIC (Pseudomonas aeruginosa)	MIC (Staphylococcus aureus [2])	Activity (Staphylococcus aureus [1])
S=C(Nc1nc(Nc2ccc(Cl)cc2)nc(Nc2ccc(Cl)cc2)n1)N1N=C(c2ccccc2)CC1c1ccccc1 (configuration not stated)	31.2 µg/mL (≈ 51.1 µM)	15.6 µg/mL (≈ 25.5 µM)	31.2 µg/mL (≈ 51.1 µM)	7.81 µg/mL (≈ 12.8 µM)	31.2 µg/mL (≈ 51.1 µM)	15.6 µg/mL (≈ 25.5 µM)	31.25 µg/mL
O=[N+]([O-])c1ccccc1C1CC(c2ccccc2)=NN1C(=S)Nc1nc(Nc2ccc(Cl)cc2)nc(Nc2ccc(Cl)cc2)n1 (configuration not stated)	125 µg/mL (≈ 190 µM)	62.5 µg/mL (≈ 95.2 µM)	31.2 µg/mL (≈ 47.6 µM)	15.6 µg/mL (≈ 23.8 µM)	125 µg/mL (≈ 190 µM)	62.5 µg/mL (≈ 95.2 µM)	125 µg/mL
O=[N+]([O-])c1ccc(C2CC(c3ccccc3)=NN2C(=S)Nc2nc(Nc3ccc(Cl)cc3)nc(Nc3ccc(Cl)cc3)n2)cc1 (configuration not stated)	62.5 µg/mL (≈ 95.2 µM)	62.5 µg/mL (≈ 95.2 µM)	125 µg/mL (≈ 190 µM)	31.2 µg/mL (≈ 47.6 µM)	62.5 µg/mL (≈ 95.2 µM)	125 µg/mL (≈ 190 µM)	125 µg/mL
O=[N+]([O-])c1cccc(Nc2nc(NC(=S)N3N=C(c4ccccc4)CC3c3ccccc3[N+](=O)[O-])nc(Nc3cccc([N+](=O)[O-])c3)n2)c1 (configuration not stated)	125 µg/mL (≈ 184 µM)	62.5 µg/mL (≈ 92.2 µM)	62.5 µg/mL (≈ 92.2 µM)	62.5 µg/mL (≈ 92.2 µM)	125 µg/mL (≈ 184 µM)	15.6 µg/mL (≈ 23 µM)	125 µg/mL
O=[N+]([O-])c1ccc(C2CC(c3ccccc3)=NN2C(=S)Nc2nc(Nc3cccc([N+](=O)[O-])c3)nc(Nc3cccc([N+](=O)[O-])c3)n2)cc1 (configuration not stated)	62.5 µg/mL (≈ 92.2 µM)	62.5 µg/mL (≈ 92.2 µM)	125 µg/mL (≈ 184 µM)	31.2 µg/mL (≈ 46.1 µM)	62.5 µg/mL (≈ 92.2 µM)	31.2 µg/mL (≈ 46.1 µM)	62.5 µg/mL
O=[N+]([O-])c1cccc(Nc2nc(NC(=S)N3N=C(c4ccccc4)CC3c3ccc(Cl)cc3)nc(Nc3cccc([N+](=O)[O-])c3)n2)c1 (configuration not stated)	31.2 µg/mL (≈ 46.8 µM)	15.6 µg/mL (≈ 23.4 µM)	7.81 µg/mL (≈ 11.7 µM)	7.81 µg/mL (≈ 11.7 µM)	31.2 µg/mL (≈ 46.8 µM)	15.6 µg/mL (≈ 23.4 µM)	15.62 µg/mL
O=[N+]([O-])c1ccccc1C1CC(c2ccccc2)=NN1C(=S)Nc1nc(Nc2ccc(F)cc2)nc(Nc2ccc(F)cc2)n1 (configuration not stated)	31.2 µg/mL (≈ 50.1 µM)	31.2 µg/mL (≈ 50.1 µM)	62.5 µg/mL (≈ 100 µM)	31.2 µg/mL (≈ 50.1 µM)	31.2 µg/mL (≈ 50.1 µM)	31.2 µg/mL (≈ 50.1 µM)	31.25 µg/mL
O=[N+]([O-])c1ccc(C2CC(c3ccccc3)=NN2C(=S)Nc2nc(Nc3ccc(F)cc3)nc(Nc3ccc(F)cc3)n2)cc1 (configuration not stated)	31.2 µg/mL (≈ 50.1 µM)	62.5 µg/mL (≈ 100 µM)	31.2 µg/mL (≈ 50.1 µM)	15.6 µg/mL (≈ 25 µM)	31.2 µg/mL (≈ 50.1 µM)	31.2 µg/mL (≈ 50.1 µM)	62.5 µg/mL
Fc1ccc(Nc2nc(NC(=S)N3N=C(c4ccccc4)CC3c3ccccc3Cl)nc(Nc3ccc(F)cc3)n2)cc1 (configuration not stated)	15.6 µg/mL (≈ 25.5 µM)	7.81 µg/mL (≈ 12.7 µM)	15.6 µg/mL (≈ 25.5 µM)	7.81 µg/mL (≈ 12.7 µM)	15.6 µg/mL (≈ 25.5 µM)	15.6 µg/mL (≈ 25.5 µM)	62.5 µg/mL
CN[C@H](CC(C)C)C(=O)N[C@H]1C(=O)N[C@@H](CC(N)=O)C(=O)N[C@H]2C(=O)N[C@H]3C(=O)N[C@H](C(=O)N[C@H](C(=O)O)c4cc(O)cc(O)c4-c4cc3ccc4O)[C@H](O)c3ccc(c(Cl)c3)Oc3cc2cc(c3O[C@@H]2O[C@H](CO)[C@@H](O)[C@H](O)[C@H]2O[C@H]2C[C@](C)(N)[C@H](O)[C@H](C)O2)Oc2ccc(cc2Cl)[C@H]1O [VANCOMYCIN]							3.91 µg/mL

Continued by falling MIC (Escherichia coli), values first:

MIC (Escherichia coli)	MIC (Proteus vulgaris)	MIC (Bacillus cereus)	MIC (Bacillus subtilis)	MIC (Pseudomonas aeruginosa)	MIC (Staphylococcus aureus [2])	SMILES	Activity (Staphylococcus aureus [1])
15.6 µg/mL (≈ 24.2 µM)	15.6 µg/mL (≈ 24.2 µM)	62.5 µg/mL (≈ 96.7 µM)	3.91 µg/mL (≈ 6.05 µM)	15.6 µg/mL (≈ 24.2 µM)	15.6 µg/mL (≈ 24.2 µM)	S=C(Nc1nc(Nc2ccc(Cl)cc2)nc(Nc2ccc(Cl)cc2)n1)N1N=C(c2ccccc2)CC1c1ccccc1Cl (configuration not stated)	31.25 µg/mL
15.6 µg/mL (≈ 23.4 µM)	31.2 µg/mL (≈ 46.8 µM)	15.6 µg/mL (≈ 23.4 µM)	15.6 µg/mL (≈ 23.4 µM)	15.6 µg/mL (≈ 23.4 µM)	15.6 µg/mL (≈ 23.4 µM)	O=[N+]([O-])c1cccc(Nc2nc(NC(=S)N3N=C(c4ccccc4)CC3c3ccccc3Cl)nc(Nc3cccc([N+](=O)[O-])c3)n2)c1 (configuration not stated)	62.5 µg/mL
15.6 µg/mL (≈ 27 µM)	15.6 µg/mL (≈ 27 µM)	3.91 µg/mL (≈ 6.76 µM)	7.81 µg/mL (≈ 13.5 µM)	15.6 µg/mL (≈ 27 µM)	7.81 µg/mL (≈ 13.5 µM)	Fc1ccc(Nc2nc(NC(=S)N3N=C(c4ccccc4)CC3c3ccccc3)nc(Nc3ccc(F)cc3)n2)cc1 (configuration not stated)	15.62 µg/mL
7.81 µg/mL (≈ 12.1 µM)	15.6 µg/mL (≈ 24.2 µM)	15.6 µg/mL (≈ 24.2 µM)	3.91 µg/mL (≈ 6.05 µM)	7.81 µg/mL (≈ 12.1 µM)	15.6 µg/mL (≈ 24.2 µM)	S=C(Nc1nc(Nc2ccc(Cl)cc2)nc(Nc2ccc(Cl)cc2)n1)N1N=C(c2ccccc2)CC1c1ccc(Cl)cc1 (configuration not stated)	62.5 µg/mL
7.81 µg/mL (≈ 12.3 µM)	7.81 µg/mL (≈ 12.3 µM)	7.81 µg/mL (≈ 12.3 µM)	15.6 µg/mL (≈ 24.7 µM)	7.81 µg/mL (≈ 12.3 µM)	7.81 µg/mL (≈ 12.3 µM)	O=[N+]([O-])c1cccc(Nc2nc(NC(=S)N3N=C(c4ccccc4)CC3c3ccccc3)nc(Nc3cccc([N+](=O)[O-])c3)n2)c1 (configuration not stated)	31.25 µg/mL
7.81 µg/mL (≈ 12.7 µM)	15.6 µg/mL (≈ 25.5 µM)	7.81 µg/mL (≈ 12.7 µM)	3.91 µg/mL (≈ 6.38 µM)	7.81 µg/mL (≈ 12.7 µM)	31.2 µg/mL (≈ 51 µM)	Fc1ccc(Nc2nc(NC(=S)N3N=C(c4ccccc4)CC3c3ccc(Cl)cc3)nc(Nc3ccc(F)cc3)n2)cc1 (configuration not stated)	31.25 µg/mL
3.91 µg/mL (≈ 8.62 µM)	7.81 µg/mL (≈ 17.2 µM)	3.91 µg/mL (≈ 8.62 µM)	1.95 µg/mL (≈ 4.3 µM)	3.91 µg/mL (≈ 8.62 µM)	7.81 µg/mL (≈ 17.2 µM)	C=CC1=C(C(=O)O)N2C(=O)[C@@H](NC(=O)/C(=N\OCC(=O)O)c3csc(N)n3)[C@H]2SC1 [CEFIXIME]	
